Measurements reported in PMC3066644 (Journal of Lipids, 2010).

Experiments:
acid ceramidase (aCDase) [1] = target: T1, acid ceramidase (aCDase) (Homo sapiens, UniProt Q13510); test: micellar aCDase assay with recombinant human enzyme, HPLC fluorescence detection of sphingosine; format: biochemical
T1 construct: gene ASAH1
T1 sequence (Q13510 22-142): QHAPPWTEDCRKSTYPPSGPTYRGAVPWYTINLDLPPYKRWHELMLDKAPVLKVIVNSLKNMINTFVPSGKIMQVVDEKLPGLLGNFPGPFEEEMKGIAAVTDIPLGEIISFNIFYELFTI
T1 sequence (Q13510 143-395): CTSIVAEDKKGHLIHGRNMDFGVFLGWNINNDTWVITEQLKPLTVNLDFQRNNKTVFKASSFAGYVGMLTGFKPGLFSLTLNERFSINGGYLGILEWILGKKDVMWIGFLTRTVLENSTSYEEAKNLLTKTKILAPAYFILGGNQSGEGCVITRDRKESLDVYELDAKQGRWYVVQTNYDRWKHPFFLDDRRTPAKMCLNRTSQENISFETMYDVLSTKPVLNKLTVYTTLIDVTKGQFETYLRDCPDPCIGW

acid ceramidase (aCDase) [2] = target: T1, acid ceramidase (aCDase); test: micellar aCDase assay at […] inhibitor, recombinant human enzyme; format: biochemical

| Compound | IC50 (acid ceramidase (aCDase) [1]) | micellar aCDase assay at 2.5 μM inhibitor, recombinant human enzyme (acid ceramidase (aCDase) [2]) |
| --- | --- | --- |
| CCCCCCCCCCCCCC(=O)NCC(O)c1ccccc1 (racemic) [DP24a, N-(2-Hydroxy-2-Phenylethyl)-Tetradecanamide] | 1290 nM |  |
| CCCCCCCCCCCCCC(=O)NCC(O)c1cccnc1 (racemic) [DP24c, N-(2-Hydroxy-2-(Pyridin-3-yl)-Ethyl)Tetradecanamide] |  | Although DP24c provides a basic moiety, it showed at least the same inhibition as DP24a or DP24b |
| CCCCCCCCCCCCCCNC(=O)NCC(O)c1ccccc1 (racemic) [DP25a, 1-(2-Hydroxy-2-Phenylethyl)-3-Tetradecylurea] |  | Evaluation in the aCDase assay revealed only a slightly better inhibition |
| CCCCCCCCCCCCCCNC(=O)NCC(O)c1cccnc1 (racemic) [DP25c, 1-(2-Hydroxy-2-(Pyridin-3-yl)Ethyl)-3-Tetradecylurea] |  | Evaluation in the aCDase assay revealed only a slightly better inhibition |
